Results reported in patent US10004701B2, “Methods and compositions for treating infection” (UNIVERSITY OF ROCHESTER, priority 2012, dated 2018).
Structures can show the parent of a compound that is named as a salt. Where two headings read alike, the source gives them in different places.

Tests used:
Assay in all cases: AK assay 384-well format, Prestwick library screening
[1] = tested on: E. faecium; assay type: cell-based, Enterococcus faecium; settings: 50 μM final drug concentration; for fold induction at 50 µM: Enterococcus faecium, 3 h
[2] = tested on: S. aureus strain USA300-0114; assay type: cell-based, Staphylococcus aureus; settings: 50 μM final drug concentration; for fold induction at 50 µM: Staphylococcus aureus, USA300, 3 h
[3] = tested on: K. pneumoniae; assay type: cell-based, Klebsiella pneumoniae; settings: 50 μM final drug concentration; for fold induction at 50 µM: Klebsiella pneumoniae, 3 h
[4] = tested on: A. baumannii strain 98-37-09; assay type: cell-based, Acinetobacter baumannii; settings: 50 μM final drug concentration; for fold induction at 50 µM: Acinetobacter baumannii, 983709, 3 h
[5] = tested on: P. aeruginosa; assay type: cell-based, Pseudomonas aeruginosa; settings: 50 μM final drug concentration; for fold induction at 50 µM: Pseudomonas aeruginosa, 3 h
[6] = tested on: E. cloacae; assay type: cell-based, Enterobacter cloacae; settings: 50 μM final drug concentration; for fold induction at 50 µM: Enterobacter cloacae, 3 h
[7] = tested on: E. coli; assay type: cell-based, Escherichia coli; settings: 50 μM final drug concentration; for fold induction at 50 µM: Escherichia coli, 3 h
[8] = cutoff for positive-scoring molecules 3-fold increase, read-out: AK-based Prestwick Library Screening Results, E. faecium (fold increase in extracellular AK activity)
[9] = cutoff for positive-scoring molecules 3-fold increase, read-out: AK-based Prestwick Library Screening Results, S. aureus (fold increase in extracellular AK activity)
[10] = cutoff for positive-scoring molecules 3-fold increase, read-out: AK-based Prestwick Library Screening Results, K. pneumoniae (fold increase in extracellular AK activity)
[11] = cutoff for positive-scoring molecules 3-fold increase, read-out: AK-based Prestwick Library Screening Results, A. baumannii (fold increase in extracellular AK activity)
[12] = cutoff for positive-scoring molecules 3-fold increase, read-out: AK-based Prestwick Library Screening Results, P. aeruginosa (fold increase in extracellular AK activity)
[13] = cutoff for positive-scoring molecules 3-fold increase, read-out: AK-based Prestwick Library Screening Results, E. cloacae (fold increase in extracellular AK activity)
[14] = cutoff for positive-scoring molecules 3-fold increase, read-out: AK-based Prestwick Library Screening Results, E. coli (fold increase in extracellular AK activity)
[15] = 384-well format, cutoff for positive-scoring molecules 3-fold increase, read-out: AK-based Prestwick Library Screening Results, E. faecium (increase in extracellular AK activity)
[16] = 384-well format, cutoff for positive-scoring molecules 3-fold increase, read-out: AK-based Prestwick Library Screening Results, S. aureus (increase in extracellular AK activity)
[17] = 384-well format, cutoff for positive-scoring molecules 3-fold increase, read-out: AK-based Prestwick Library Screening Results, K. pneumoniae (increase in extracellular AK activity)
[18] = 384-well format, cutoff for positive-scoring molecules 3-fold increase, read-out: AK-based Prestwick Library Screening Results, A. baumannii (increase in extracellular AK activity)
[19] = 384-well format, cutoff for positive-scoring molecules 3-fold increase, read-out: AK-based Prestwick Library Screening Results, P. aeruginosa (increase in extracellular AK activity)
[20] = 384-well format, cutoff for positive-scoring molecules 3-fold increase, read-out: AK-based Prestwick Library Screening Results, E. cloacae (increase in extracellular AK activity)

## NC[C@@H]1O[C@H](O[C@H]2[C@@H](O)[C@H](O[C@@H]3[C@@H](O)[C@H](N)C[C@H](N)[C@H]3O[C@H]3O[C@H](CO)[C@@H](O)[C@H](O)[C@H]3N)O[C@@H]2CO)[C@H](N)[C@@H](O)[C@@H]1O [Paromomycin sulfate]
[1]; [8]
  fold induction at 50 µM: 0.9
[2]; [9]
  fold induction at 50 µM: 1.3
[3]; [10]
  fold induction at 50 µM: 1
[4]; [11]
  fold induction at 50 µM: 1.5
[5]; [12]
  fold induction at 50 µM: 1
[6]; [13]
  fold induction at 50 µM: 1.4
[7]; [14]
  fold induction at 50 µM: 1.4

## Fc1ccc([C@@H]2CCNC[C@H]2COc2ccc3c(c2)OCO3)cc1 [Paroxetine Hydrochloride]
[1]; [8]
  fold induction at 50 µM: 0.9
[2]; [9]
  fold induction at 50 µM: 1.4
[3]; [10]
  fold induction at 50 µM: 1.2
[4]; [11]
  fold induction at 50 µM: 1.3
[5]; [12]
  fold induction at 50 µM: 1.3
[6]; [13]
  fold induction at 50 µM: 1.6
[7]; [14]
  fold induction at 50 µM: 1.4

## CN1C(C)(C)CCCC1(C)C [Pempidine tartrate]
[1]; planktonic, […], read-out: AK-based Prestwick Library Screening Results, E. faecium (fold increase in extracellular AK activity)
  fold induction at 50 µM: 1
[2]; planktonic, […], read-out: AK-based Prestwick Library Screening Results, S. aureus (fold increase in extracellular AK activity)
  fold induction at 50 µM: 1.1
[3]; planktonic, […], read-out: AK-based Prestwick Library Screening Results, K. pneumoniae (fold increase in extracellular AK activity)
  fold induction at 50 µM: 1
[4]; planktonic, […], read-out: AK-based Prestwick Library Screening Results, A. baumannii (fold increase in extracellular AK activity)
  fold induction at 50 µM: 1.1
[5]; planktonic, […], read-out: AK-based Prestwick Library Screening Results, P. aeruginosa (fold increase in extracellular AK activity)
  fold induction at 50 µM: 1.1
[6]; planktonic, […], read-out: AK-based Prestwick Library Screening Results, E. cloacae (fold increase in extracellular AK activity)
  fold induction at 50 µM: 1.5
[7]; planktonic, […], read-out: AK-based Prestwick Library Screening Results, E. coli (fold increase in extracellular AK activity)
  fold induction at 50 µM: 1.1

## CC(C)(C)NC[C@H](O)COc1ccccc1C1CCCC1 [Penbutolol sulfate]
[1]; [8]
  fold induction at 50 µM: 0.8
[2]; [9]
  fold induction at 50 µM: 0.4
[3]; [10]
  fold induction at 50 µM: 0.5
[4]; [11]
  fold induction at 50 µM: 0.4
[5]; [12]
  fold induction at 50 µM: 0.5
[6]; [13]
  fold induction at 50 µM: 0.4
[7]; [14]
  fold induction at 50 µM: 0.5

## N=C(N)c1ccc(OCCCCCOc2ccc(C(=N)N)cc2)cc1 [Pentamidine isethionate]
[1]; planktonic, cutoff for positive 3-fold increase, read-out: AK-based Prestwick Library Screening Results, E. faecium (fold increase in extracellular AK activity)
  fold induction at 50 µM: 1.4
[2]; planktonic, cutoff for positive 3-fold increase, read-out: AK-based Prestwick Library Screening Results, S. aureus (fold increase in extracellular AK activity)
  fold induction at 50 µM: 1.9
[3]; planktonic, cutoff for positive 3-fold increase, read-out: AK-based Prestwick Library Screening Results, K. pneumoniae (fold increase in extracellular AK activity)
  fold induction at 50 µM: 1.2
[4]; planktonic, cutoff for positive 3-fold increase, read-out: AK-based Prestwick Library Screening Results, A. baumannii (fold increase in extracellular AK activity)
  fold induction at 50 µM: 1.2
[5]; planktonic, cutoff for positive 3-fold increase, read-out: AK-based Prestwick Library Screening Results, P. aeruginosa (fold increase in extracellular AK activity)
  fold induction at 50 µM: 1.2
[6]; planktonic, cutoff for positive 3-fold increase, read-out: AK-based Prestwick Library Screening Results, E. cloacae (fold increase in extracellular AK activity)
  fold induction at 50 µM: 1.4
[7]; planktonic, cutoff for positive 3-fold increase, read-out: AK-based Prestwick Library Screening Results, E. coli (fold increase in extracellular AK activity)
  fold induction at 50 µM: 1.4

## O=C(O)CN(CCN(CC(=O)O)CC(=O)O)CCN(CC(=O)O)CC(=O)O [Pentetic acid]
[1]; [8]
  fold induction at 50 µM: 1
[2]; [9]
  fold induction at 50 µM: 1.4
[3]; [10]
  fold induction at 50 µM: 1.1
[4]; [11]
  fold induction at 50 µM: 1.3
[5]; [12]
  fold induction at 50 µM: 1.2
[6]; [13]
  fold induction at 50 µM: 1.5
[7]; [14]
  fold induction at 50 µM: 1.3

## C[N+]1(CCCCC[N+]2(C)CCCC2)CCCC1.O=C([O-])C(O)C(O)C(=O)O.O=C([O-])C(O)C(O)C(=O)O [Pentolinium bitartrate]
[1]; 384-well format, […]
  AK-based Prestwick Library Screening Results, E. faecium (increase in extracellular AK activity): 0.9
[2]; 384-well format, […]
  AK-based Prestwick Library Screening Results, S. aureus (increase in extracellular AK activity): 0.7
[3]; 384-well format, […]
  AK-based Prestwick Library Screening Results, K. pneumoniae (increase in extracellular AK activity): 0.7
[4]; 384-well format, […]
  AK-based Prestwick Library Screening Results, A. baumannii (increase in extracellular AK activity): 1.0
[5]; 384-well format, […]
  AK-based Prestwick Library Screening Results, P. aeruginosa (increase in extracellular AK activity): 1.0
[6]; 384-well format, […]
  AK-based Prestwick Library Screening Results, E. cloacae (increase in extracellular AK activity): 1.1
[7]; 384-well format, […]
  AK-based Prestwick Library Screening Results, E. coli (increase in extracellular AK activity): 0.8

## CC(=O)CCCCn1c(=O)c2c(ncn2C)n(C)c1=O [Pentoxifylline]
[1]; [15]
  fold induction at 50 µM: 0.9
[2]; [16]
  fold induction at 50 µM: 0.8
[3]; [17]
  fold induction at 50 µM: 0.7
[4]; [18]
  fold induction at 50 µM: 0.9
[5]; [19]
  fold induction at 50 µM: 0.8
[6]; [20]
  fold induction at 50 µM: 1.1
[7]; 384-well format, cutoff for positive-scoring molecules 3-fold increase, read-out: AK-based Prestwick Library Screening Results, E. coli (increase in extracellular AK activity)
  fold induction at 50 µM: 0.8

## C1CCc2nnnn2CC1 [Pentylenetetrazole]
[1]; [15]
  fold induction at 50 µM: 1
[2]; [16]
  fold induction at 50 µM: 0.7
[3]; [17]
  fold induction at 50 µM: 0.5
[4]; [18]
  fold induction at 50 µM: 0.6
[5]; [19]
  fold induction at 50 µM: 0.7
[6]; [20]
  fold induction at 50 µM: 0.6
[7]; 384-well format, […], read-out: AK-based Prestwick Library Screening Results, E. coli (increase in extracellular AK activity)
  fold induction at 50 µM: 0.6
